Assay results published in patent US20180185308A1, “COMPOSITIONS AND METHODS FOR TREATING INFLAMMATORY DISEASE OR CONDITIONS” (Matinas BioPharma Nanotechnologies, Inc., priority 2015, published 2018).

Legend:
[1] = system: carrageenan-induced paw inflammation; assay: Rat carrageenan-induced paw inflammation (paw edema) assay; format: in vivo, Male Sprague Dawley rats; details: oral, one hour prior to carrageenan, paw weight difference four hours after carrageenan
Experimental: The in vivo efficacy if NSAID cochleates was tested in a rat carrageenan-induced paw inflammation assay.
Two types of ibuprofen-containing cochleates were prepared, crystal cochleates and geode cochleates. The cochleates were prepared with using soy phosphatidylserine as a negative phospholipid. To prepare the ibuprofen geode cochleate, the soy phosphatidylserine was combined with castor oil and ibuprofen and mixed to form a stable emulsion comprising a mixture of liposomes and lipid monolayers comprising the phosphatidylserine surrounding a hydrophobic domain (castor oil), with the ibuprofen dispersed within the castor oil. […] Crystal and geode cochleates containing 50, 10, 2, 0.4, or 0.1 mg/kg of ibuprofen were prepared. Male Sprague Dawley rats were treated orally (one hour prior to right hind footpad injection of carrageenan) with vehicle, a commercial preparation of ibuprofen or ibuprofen formulated in either crystal or geode cochleates and were evaluated for effects of treatment on inflammatory edema. Animals were sacrificed five hours after dosing with test articles (four hours after carrageenan injection). Efficacy evaluation was based on weight difference due to inflammation-induced swelling in injected (right) vs. uninjected (left) paws. In addition, gastric mucosa were evaluated for differences in incidence and severity of mucosal congestion and erosions.

gastric mucosa = assay: Evaluation of gastric mucosa for lesions/erosions in rats after oral dosing; format: in vivo, Male Sprague Dawley rats
Experimental: Male Sprague Dawley rats were treated orally (one hour prior to right hind footpad injection of carrageenan) with vehicle, a commercial preparation of ibuprofen or ibuprofen formulated in either crystal or geode cochleates and were evaluated for effects of treatment on inflammatory edema. Animals were sacrificed five hours after dosing with test articles (four hours after carrageenan injection). Efficacy evaluation was based on weight difference due to inflammation-induced swelling in injected (right) vs. uninjected (left) paws. In addition, gastric mucosa were evaluated for differences in incidence and severity of mucosal congestion and erosions.

[2] = Solubility of ibuprofen in oils; format: physicochemical
[3] = rats, ibuprofen at 50 mg/kg oral

Average Size of Lesion (gastric mucosa; [3]): 7.2 ± 1.9 | Number of Lesions per Animal (gastric mucosa; [3]): 4.1 ± 0.8 | Number of Animals with Lesions (gastric mucosa; rats, ibuprofen at 50 mg/kg oral, five hours after dosing, groups of 10): 9
SMILES: CC(C)Cc1ccc(C(C)C(=O)O)cc1 (stereo not drawn) [Commercial ibuprofen, ibuprofen]
ED50 [1]: 30 mg/kg | rats with gastric lesions (incidence) (gastric mucosa; 10 mg/kg, oral): 1 of 10 | rats with gastric lesions (incidence) (gastric mucosa; 10 mg/kg, oral, listed as commercial preparation of ibuprofen): Some rats | number of gastric lesions and total stomach lesion length (in words) (gastric mucosa; 50 mg/kg, oral): significantly increased numbers of gastric lesions and increased total stomach lesion length | rats with gastric lesions (incidence) (gastric mucosa; single-dose 50 mg/kg (highest dose), oral): 9 of 10 | solubility in castor oil compared with other oils [2]: substantially more soluble in castor oil than other oils
